Test system: B6CBAF1/j hybrid mice
Experiment: Testosterone-induced hair loss in mice: hair loss area and follicle count
Assay type: in vivo
Details: after two weeks; testosterone 10 mg/ml + each test substance 1 mg/ml; compared to testosterone alone (group T); FIG. 3
Description: B6CBAF1/j hybrid mice (5 weeks old, male, Charles River Japan) were acclimated for one week in a breeding room and then used from the time of 6 weeks after birth.
For use in an injection agent, a solvent was prepared to contain 15% of ethanol, 5% of NMP, and 80% of PBS. Solutions were prepared by mixing the solvent with the following solutes: group T (testosterone 10 mg/ml), group TD (testosterone 10 mg/ml+deoxycholic acid 1 mg/ml), group TR (testosterone 10 mg/ml+resveratrol 1 mg/ml), group TF (testosterone 10 mg/ml+finasteride 1 mg/ml), and group TRF (testosterone 10 mg/ml+resveratrol 1 mg/ml+finasteride 1 mg/ml).
The animals were anesthetized with isoflurane through inhalation and injected subcutaneously at the neck with 100 μl of a testosterone solution (10 mg/ml) every day. From a couple of weeks, they were photographed along with a scale bar to quantify a hair loss area. After six weeks of testing, the mice were sacrificed by means of a CO2 incubator. Test areas of the skin were taken, fixed with formalin, and prepared into paraffin blocks. The blocks were horizontally sectioned and dyed with H&E (Hematoxylin & Eosin) to count follicles per mm^2.

SMILES: Oc1ccc(C=Cc2cc(O)cc(O)c2)cc1 [resveratrol]
- increment in hair loss area: greatly reduced

Reference: patent publication US20190125648A1, “COMPOSITION FOR PREVENTING, IMPROVING OR TREATING HAIR LOSS COMPRISING DEOXYCHOLIC ACID AS ACTIVE INGREDIENT” (priority 2016, published 2019)
